Measured values from patent US20100137267A1, “FORMULATIONS FOR TREATMENT OF ADIPOSE TISSUE, CUTANEOUS TISSUE AND DISORDERS, AND MUSCULAR TISSUE” (priority 2006, published 2010).
“Also recorded” adds a separate entry of the source.

Columns and labels:
[1] = tested on: cultured human adipocytes; assay: In vitro lipolysis assay (glycerol release) in cultured adipocytes; type: cell-based; settings: for lipolysis after 18 hour incubation: Salmeterol 10^−6 M or 10^−8 M, Budesonide 10^−6 M in combination; for increase in lipolysis: relative to negative control (0.1% DMSO), Isoproterenol 10^−6 M positive control
Method: In the in vitro lipolysis assay, glycerol was detected in cell culture media via a spectrophotometric measurement after chemical oxidation with hydrogen peroxide. Glycerol was measured over a three hour time period. Levels of lipolysis in cultured human adipocytes were tested after exposure to a beta adrenergic agonist alone, a glucocorticosteroid alone, or the combination of the two for one or more preincubation periods as described in more detail below.
Human subcutaneous adipocytes were used in the lipolysis assay. Adipose tissue was harvested from liposuction or lipectomy and pre-adipocytes were isolated as follows. Briefly, fat tissue was minced and incubated at 37° C. in Krebs-Ringer bicarbonate buffer containing 1% bovine serum albumin and 0.1% collagenase in an oxygen-rich shaking chamber (5% CO2; 75 strokes/min) for 1 hour. The suspension was filtered through a 400 μm nylon mesh and centrifuged for 1 min at 100 g. The pre-adipocytes in the supernatant were washed twice with and then plated in 96 well plates at a density of cells/well. The pre-adipocytes were cultured in maintenance medium for seven days as they differentiated into adipocytes.
At −21 hours before the lipolysis assay, medium was removed from each well and replaced with 75 μl of Maintenance Medium containing appropriate drug or DMSO (vehicle) concentrations (see Experimental Design section below). Each test drug or control treatment was applied to 8 wells/group (12 treatment groups per 96-well plate). At −3 hours prior to the lipolysis assay, each well was washed two times with Wash Buffer (200 μl/wash), filled with test or control solutions made up in Assay Buffer (75 μl/well), and then incubated for three hours, i.e., until measurement of glycerol content in the Assay Buffer. For some groups, a drug was only added for the three hour incubation period (see Experimental and Control Groups Below).
The glycerol content of the Assay Buffer from each well following the incubation was used as an index for lipolysis, where an increase in glycerol indicated lipolysis. Glycerol levels were assayed colorimetrically via a commercial glycerol assay kit (Randox Laboratory, United Kingdom) and quantified by comparison to a glycerol serial dilution standard curve (3 μM-200 μM). Glycerol concentrations for each well were normalized to cell density.
In each of the following control or experimental groups n=8 corresponding to the glycerol measurements for 8 wells from a 96-well cell culture plate.

[2] = Octanol:Water; cited from earlier work
[3] = compared with albuterol 5, a short acting hydrophilic beta adrenergic agonist; cited from earlier work

Compound	lipolysis after 18 hour incubation ([1]; Isoproterenol 10^−6 M)	increase in lipolysis ([1]; three hour incubation)	Log P [2]	induction of lipolysis in cultured adipocytes (figure legend) ([1]; three hour incubation)	lipolysis compared with Isoproterenol (positive control) ([1]; three hour incubation, Isoproterenol 10^−6 M, formoterol statement holds for concentrations of 10^−6 M and above)	lipophilicity relative to albuterol [3]
CC(C)NCC(O)c1ccc(O)c(O)c1 (stereo not drawn) [Isoproterenol, isoproterenol]	decreased lipolysis	about 2.5 fold				
COc1ccc(C[C@@H](C)NC[C@H](O)c2ccc(O)c(NC=O)c2)cc1 (racemic) [Formoterol, ±N-[2-hydroxy-5-[1-hydroxy-2-[1-(4-methoxyphenyl)propan-2-ylamino]ethyl]phenyl]methanamide]			2-4			
budesonide	slight suppression of lipolysis	up to 1.5 fold		dose-dependent induction of lipolysis	lower than that observed for Isoproterenol	
OCc1cc(C(O)CNCCCCCCOCCCCc2ccccc2)ccc1O (racemic) [Salmeterol, ±2-(hydroxymethyl)-4-[1-hydroxy-2-[6-(4-phenylbutoxy)hexylamino]ethyl]-phenol]	decreased lipolysis; also recorded: dose-dependent suppression of lipolysis					at least 10,000 times
